Experimental data reported in patent US8507508B2, “Solid forms of pemetrexed” (Dr. Reddy's Laboratories Limited, priority 2007, dated 2013).

Test: Physical stability on storage, checked by retention of the original XRPD pattern
Type: physicochemical
Description: All XRPD data reported herein were obtained using a Bruker or PANalytical AXS D8 Advance Powder X-ray Diffractometer at Cu Kα radiation, having the wavelength 1.5418 Å. Since some margin of error is possible in the assignment of 2 theta angles and d-spacings, the preferred method of comparing X-ray powder diffraction patterns in order to identify a particular crystalline form is to overlay the X-ray powder diffraction pattern of the unknown form over the X-ray powder diffraction pattern of a known form. For all analytical data discussed in this application, it should be kept in mind that specific values depend on many factors, e.g., specific instrument, sample preparation and individual operator.
The obtained sample kept in a sealed polythene bag at a temperature of 20° C. to 25° C. for a period of 58 days to check the physical stability.
The obtained sample kept in a sealed polythene bag at a temperature of 20 to 25° C. for a period of 7 days to check the physical stability.
The obtained sample kept in a sealed polythene bag at a temperature of 20 to 25° C. for a period of 3 days to check the physical stability.
The sample was kept in a petri dish and stored at room temperature for a period of 24 hours to check the physical stability.

SMILES: Nc1nc2[nH]cc(CCc3ccc(C(=O)N[C@@H](CCC(=O)[O-])C(=O)[O-])cc3)c2c(=O)[nH]1.[Na+].[Na+] [Example 1, Amorphous Pemetrexed Disodium]
- physical stability (XRPD and physical observation) (sealed polythene bag, 20° C. to 25° C., 58 days): retain its amorphous nature

SMILES: Nc1nc2[nH]cc(CCc3ccc(C(=O)N[C@@H](CCC(=O)[O-])C(=O)[O-])cc3)c2c(=O)[nH]1.[Na+].[Na+] [Example 3, Amorphous Pemetrexed Disodium]
- physical stability (XRPD) (sealed polythene bag, 20 to 25° C., 7 days): retain its amorphous form

SMILES: Nc1nc2[nH]cc(CCc3ccc(C(=O)N[C@@H](CCC(=O)[O-])C(=O)[O-])cc3)c2c(=O)[nH]1.[Na+].[Na+] [Example 4, Amorphous Pemetrexed Disodium]
- physical stability (XRPD) (petri dish, room temperature, 24 hours): retain its polymorphic form
- physical stability (XRPD) (sealed polythene bag, 20 to 25° C., 3 days): retain its polymorphic form
